Measurements published in article PMC9393241, “Design, Synthesis, and Activity Assays of Cyclin-Dependent Kinase 1 Inhibitors With Flavone Scaffolds” (Frontiers in Chemistry, 2022).

Columns and labels:
RAW264.7 cells = assay: Cell growth inhibition assay (CCK-8), RAW264.7; type: cell-based; conditions: Mus musculus, 24 h
Method: (§1) All test compounds and controls were dissolved in DMSO to prepare 250 μM stock solutions. The stock solutions were filtered through a […] and diluted into five concentrations (0.1–250 μM) with DMEM medium. MCF-7 and RAW264.7 cells were inoculated at a concentration of 5,000 cells/100 μl/well into a 96-well plate for 24 h at 37°C in a humidified atmosphere containing 5% CO2. After 24 h of culture, the primary medium was discarded and replaced with 100 μl of fresh DMEM medium containing different concentrations of test compounds in triplicate. After another 24 h of culture, the medium was replaced with 100 μl of fresh DMEM medium containing 10% (v/v) CCK-8 reagent in each well for 2 h at 37°C. The OD value was measured at a wavelength of 450 nm. Cell viability was determined using the following equation: Cell viability=(ODsample-ODnegative control/ODpositive control-ODnegative control)×100% where OD positive control is the absorbance at 450 nm obtained from untreated cells. OD negative control is the absorbance obtained from a blank well containing the cell culture medium and CCK-8 reagent. The IC50 values were calculated from the plot of activity vs. inhibitor concentration by using the GraphPad Prism 5 software ([Yu et al., 2020]).

CDK1/cyclin B1 = biological target: T1, CDK1/cyclin B1 (Homo sapiens, UniProt P06493); assay: In vitro anti-CDK1/cyclin B1 kinase assay (Kinase-Glo luminescence); type: biochemical; conditions: for Selectivity: CDK1 compared with CDK4 (CDK4 IC50 / CDK1 IC50); for inhibition at 20 µM: test compounds at 20 μM, read-out: Inhibition rates (%) CDK1
T1 construct: purchased
Method: (§2) In vitro anti-CDK1/cyclin B1 and CDK4/cyclin D3 assays were performed as described by the manufacturer. All test compounds and controls were dissolved in dimethyl sulfoxide (DMSO) to prepare 50 μM stock solutions. The stock solutions were diluted by double-distilled water and buffer to 40, 30, 20, and 10 μM working concentrations and stored at −20°C. Buffer, ATP, CDK substrate […], and distilled water were mixed, and then 25 μl of the mixture was added to a 96-well plate. Five microliters of 20 μM test compounds were sequentially added. CDK1/cyclin B1 was diluted to 1 ng/μl, and CDK4/cyclin D3 was diluted to 10 ng/μl using a buffer. Twenty microliters of the kinase solutions were incubated with the test compounds at 30°C for 45 min for CDK1/cyclin B1 and for 60 min for CDK4/cyclin D3. Finally, 50 μl of Kinase-Glo Max reagent was added to each well. The 96-well plate was covered with aluminum foil and incubated at room temperature for 15 min. Luminescence of the test compounds was measured with a microplate reader.

MCF-7 cells = assay: Cell growth inhibition assay (CCK-8), MCF-7; type: cell-based; conditions: Homo sapiens, MCF7, 24 h
Method: as §1

CDK4/cyclin D3 = biological target: T2, CDK4/cyclin D3 (Homo sapiens, UniProt P11802); assay: In vitro anti-CDK4/cyclin D3 kinase assay (Kinase-Glo luminescence); type: biochemical; conditions: for inhibition at 20 µM: test compounds at 20 μM, read-out: Inhibition rates (%) CDK4
T2 construct: purchased
Method: as §2

MCF-7 tumor cell = tested on: MCF-7 tumor cell; set-up: method as in Mou et al., 2021a; conditions: concentration of 50 μg/ml; ref Mou et al., 2021a; cited from earlier work
CDK1/cyclin B kinase = biological target: CDK1/cyclin B kinase; set-up: method as in Mou et al., 2021a; conditions: ref Mou et al., 2021a; read-out: IC50 against CDK1/cyclin B kinase; cited from earlier work

T1 sequence (P06493 whole entry): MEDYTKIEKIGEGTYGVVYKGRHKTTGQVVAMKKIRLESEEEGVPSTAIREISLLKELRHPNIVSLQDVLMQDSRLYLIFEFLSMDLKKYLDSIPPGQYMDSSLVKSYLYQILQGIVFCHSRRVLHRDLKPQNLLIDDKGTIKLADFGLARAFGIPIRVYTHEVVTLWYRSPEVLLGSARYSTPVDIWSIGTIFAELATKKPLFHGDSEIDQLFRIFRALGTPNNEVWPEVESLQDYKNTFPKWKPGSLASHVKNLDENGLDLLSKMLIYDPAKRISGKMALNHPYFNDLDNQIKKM
T1 sequence (P14635 whole entry partner): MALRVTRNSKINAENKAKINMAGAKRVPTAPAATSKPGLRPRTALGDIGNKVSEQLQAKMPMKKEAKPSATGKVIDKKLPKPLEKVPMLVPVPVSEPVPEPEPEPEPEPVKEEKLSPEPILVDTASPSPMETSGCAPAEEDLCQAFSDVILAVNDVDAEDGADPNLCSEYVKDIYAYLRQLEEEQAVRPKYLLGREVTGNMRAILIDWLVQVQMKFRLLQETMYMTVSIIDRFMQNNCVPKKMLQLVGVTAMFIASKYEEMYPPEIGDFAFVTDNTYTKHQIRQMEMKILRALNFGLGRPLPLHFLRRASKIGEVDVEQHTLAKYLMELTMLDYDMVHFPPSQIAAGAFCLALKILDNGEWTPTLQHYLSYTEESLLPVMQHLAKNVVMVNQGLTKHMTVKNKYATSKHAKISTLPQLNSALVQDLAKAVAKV
T2 sequence (P11802 whole entry): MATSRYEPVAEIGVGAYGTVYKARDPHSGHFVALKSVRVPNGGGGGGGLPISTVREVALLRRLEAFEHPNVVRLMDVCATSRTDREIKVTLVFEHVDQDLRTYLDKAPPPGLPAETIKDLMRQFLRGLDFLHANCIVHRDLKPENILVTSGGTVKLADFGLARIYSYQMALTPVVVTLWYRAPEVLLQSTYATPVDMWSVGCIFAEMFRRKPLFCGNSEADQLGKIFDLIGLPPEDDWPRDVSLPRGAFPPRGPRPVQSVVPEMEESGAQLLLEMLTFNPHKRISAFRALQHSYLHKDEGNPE
T2 sequence (P30281 whole entry partner): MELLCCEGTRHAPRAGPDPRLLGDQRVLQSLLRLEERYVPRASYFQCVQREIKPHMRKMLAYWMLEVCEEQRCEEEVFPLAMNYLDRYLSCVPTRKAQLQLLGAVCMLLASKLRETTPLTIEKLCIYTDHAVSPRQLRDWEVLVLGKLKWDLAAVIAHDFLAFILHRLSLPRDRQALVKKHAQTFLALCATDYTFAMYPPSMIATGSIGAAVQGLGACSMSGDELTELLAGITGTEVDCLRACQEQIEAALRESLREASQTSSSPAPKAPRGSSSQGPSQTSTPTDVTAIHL

Compound	melting point [°C]	IC50 (RAW264.7 cells) [µM]	IC50 (CDK1/cyclin B1) [µM]	Selectivity (CDK1/cyclin B1)	inhibition at 20 µM (CDK1/cyclin B1) [%]	IC50 (MCF-7 cells) [µM]	IC50 (CDK4/cyclin D3) [µM]	inhibition at 20 µM (CDK4/cyclin D3) [%]	inhibition rate against MCF-7 tumor cell proliferation (MCF-7 tumor cell) [%]	IC50 (CDK1/cyclin B kinase) [µM]
O=c1cc(-c2ccccc2)oc2c(CN3CCOCC3)c(O)c(CN3CCOCC3)c(O)c12 [Compound 5c, 5,7-Dihydroxy-6,8-bis(morpholinomethyl)-2-phenyl-4H-chromen-4-one]	199.2 to 199.6	59.4 ± 1.23	39.6 ± 1.43	12.85	38.34 ± 0.08	76.9 ± 1.47	508 ± 5.56	8.15 ± 0.06	–	–
CCn1cnc2c(Nc3cccc(Cl)c3)nc(NC3CCCCC3N)nc21 (centres unmarked) [CGP74514 A, reference compound]	–	–	10.9 ± 0.89	3.28	62.5 ± 0.05	–	35.6 ± 1.02	48.52 ± 0.04	96.7	–
COc1ccc(-c2cc(=O)c3c(O)cc(OCCBr)cc3o2)cc1 [Compound 12c, 7-(2-Bromoethoxy)-5-hydroxy-2-(4-methoxyphenyl)-4H-chromen-4-one]	175.2 to 175.7	68.4 ± 0.99	43.6 ± 1.53	–	37.6 ± 0.12	131 ± 2.35	–	1.43 ± 0.06	–	–
O=c1cc(-c2ccccc2)oc2c(CN3CCOCC3)c3c(c(O)c12)OCCCCO3 [Compound 2a, 12-Hydroxy-7-(morpholinomethyl)-9-phenyl-2,3,4,5-tetrahydro-[1,4]dioxocino[2,3-g]chromen-11-one]	213.8 to 214.3	2.54 ± 0.12	36.4 ± 1.12	–	33.05 ± 0.12	79.7 ± 1.81	–	–	96.7	–
CN1CC[C@H](c2c(O)cc(O)c3c(=O)cc(-c4ccccc4Cl)oc23)[C@H](O)C1 [flavopiridol, reference compound]	–	0.55 ± 0.05	–	–	86.79 ± 0.04	294 ± 3.13	–	89.71 ± 0.03	90.0	–
C=C(C)C(=O)Oc1c(O)c(O)c2c(=O)cc(-c3ccccc3)oc2c1CN1CCN(C)CC1 [pro3o]	–	–	–	–	–	–	–	–	–	1.26
O=c1cc(-c2ccccc2)oc2c(CN3CCOCC3)c(OCc3ccccc3)c(O)c(O)c12 [Compound 3a, 7-(Benzyloxy)-5,6-dihydroxy-8-(morpholinomethyl)-2-phenyl-4H-chromen-4-one]	218.3 to 219.8	–	42.2 ± 1.62	12.88	38.11 ± 0.09	–	543.8 ± 4.83	2.73 ± 0.06	–	–
CCCN(CCC)Cc1c(OCCCCBr)c(O)c(O)c2c(=O)cc(-c3ccccc3)oc12 [Compound 3b, 7-(4-Bromobutoxy)-8-((dipropylamino)methyl)-5,6-dihydroxy-2-phenyl-4H-chromen-4-one]	216.2 to 221.8	–	–	–	25.33 ± 0.11	–	–	6.01 ± 0.07	–	–
CN(C)Cc1c2c(c(O)c3c(=O)cc(-c4ccccc4)oc13)OCCCCO2 [Compound 2c, 7-((Dimethylamino)methyl)-12-hydroxy-9-phenyl-2,3,4,5-tetrahydro-[1,4]dioxocino[2,3-g]chromen-11-one]	208.5 to 210.6	–	–	–	29.4 ± 0.09	–	–	10.96 ± 0.09	–	–
